Assay results taken from patent publication US9783509B2, “Six-membered C-N-linked aryl sulfide derivatives and aryl sulfoxide derivatives as pest conrol agents” (BAYER CROPSCIENCE AKTIENGESELLSCHAFT, priority 2013, dated 2017).
Read-outs that look alike come from different tables or passages of the source.

Experiments:
[1] = test system: greenhouse red spider mite (Tetranychus urticae); assay: Tetranychus urticae spray test, OP-resistant (bean leaf discs); type: in vivo; conditions: application rate 500 g/ha, after 6 days; for pest or weed control at 500 g/ha: Tetranychus urticae, foliar, 144 h, read-out: efficacy (spider mites killed)
Summary of the method: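 Compound dissolved in acetone/DMF and diluted in water with 1000 ppm alkylaryl polyglycol ether emulsifier, then sprayed on bean leaf discs infested with all stages of OP-resistant T. urticae. Mortality in % scored after 6 days (100% = all mites killed).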

[2] = test system: southern root-knot nematode (Meloidogyne incognita); assay: Meloidogyne incognita test (sand, lettuce, acetone solvent, 14 days); type: in vivo; conditions: application rate 20 ppm, after 14 days; for pest or weed control at 20 ppm: Meloidogyne incognita, 336 h, read-out: nematicidal efficacy (formation of galls)
Protocol: Meloidogyne incognita Test
Solvent: 125.0 parts by weight of acetone
To produce an appropriate active ingredient formulation, 1 part by weight of active ingredient is mixed with the stated amount of solvent and the concentrate is diluted with water to the desired concentration.
Vessels are filled with sand, active ingredient solution, an egg/larvae suspension of the southern root-knot nematode (Meloidogyne incognita) and lettuce seeds. The lettuce seeds germinate and the plants develop. The galls develop on the roots
After 14 days, the nematicidal efficacy in % is determined by the formation of galls. 100% means that no galls were found; 0% means that the number of galls on the treated plants corresponds to the untreated control.

[3] = log P by reversed-phase HPLC analogously to OECD Guideline 117; type: physicochemical; conditions: for chromatographic logP: reversed-phase C18 HPLC column
Summary of the method: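 Retention on reversed-phase C18 HPLC (LC-MS), acidic runs at pH 2.7 with formic acid or trifluoroacetic acid/acetonitrile gradients, neutral runs at pH 7.8 with 0.001 molar ammonium hydrogencarbonate/acetonitrile. log P obtained by linear interpolation of retention times against unbranched alkan-2-ones (C3–C16) of known log P.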

[4] = test system: engorged adult female cattle ticks (Boophilus microplus); assay: Boophilus microplus injection test; type: in vivo; conditions: application rate 20 μg/animal, assessed after 7 days
Protocol: Boophilus microplus—Injection Test
Solvent: dimethyl sulphoxide
To produce an appropriate active ingredient formulation, 10 mg of active ingredient are mixed with 0.5 ml of solvent and the concentrate is diluted with solvent to the desired concentration.
1 μl of the active ingredient solution is injected into the abdomen of 5 engorged adult female cattle ticks (Boophilus microplus). The animals are transferred into dishes and kept in a climate-controlled room.
The efficacy is assessed after 7 days by laying of fertile eggs. Eggs which are not visibly fertile are stored in a climate-controlled cabinet until the larvae hatch after about 42 days. An efficacy of 100% means that none of the ticks has laid any fertile eggs; 0% means that all the eggs are fertile.

[5] = test system: larvae of the mustard beetle (Phaedon cochleariae); assay: Phaedon cochleariae spray test; type: in vivo; conditions: application rate 500 g/ha, after 7 days
Protocol: Phaedon cochleariae—Spray Test
Solvent: 78.0 parts by weight of acetone • • 1.5 parts by weight of dimethylformamide
(§1) Emulsifier: alkylaryl polyglycol ether
(§2) To produce an appropriate active ingredient formulation, 1 part by weight of active ingredient is dissolved using the specified parts by weight of solvent and made up with water containing an emulsifier concentration of 1000 ppm until the desired concentration is attained. To produce further test concentrations, the preparation is diluted with emulsifier-containing water.
Discs of Chinese cabbage leaves (Brassica pekinensis) are sprayed with an active ingredient formulation of the desired concentration and, after drying, populated with larvae of the mustard beetle (Phaedon cochleariae).
After 7 days, the efficacy in % is determined. 100% means that all the beetle larvae have been killed; 0% means that no beetle larvae have been killed.

[6] = test system: greenhouse red spider mite (Tetranychus urticae); assay: Tetranychus urticae spray test, OP-resistant (bean plants); type: in vivo; conditions: application rate 20 ppm, after 7 days
Protocol: Tetranychus urticae—Spray Test, OP-Resistant
Solvent: 7 parts by weight of dimethylformamide
as §1
To produce an appropriate active ingredient formulation, 1 part by weight of active ingredient is dissolved using the specified parts by weight of solvent and made up with water containing an emulsifier concentration of 1000 ppm until the desired concentration is attained. To produce further test concentrations, the preparation is diluted with emulsifier-containing water. If the addition of ammonium salts or/and penetrants is required, these are each added in a concentration of 1000 ppm to the formulation solution.
Bean plants (Phaseolus vulgaris) heavily infested by all stages of the greenhouse red spider mite (Tetranychus urticae) are treated by spraying with the active ingredient formulation in the desired concentration.
After 7 days, the efficacy in % is determined. 100% means that all the spider mites have been killed; 0% means that none of the spider mites have been killed.

[7] = test system: green peach aphid (Myzus persicae); assay: Myzus persicae spray test (Chinese cabbage leaf discs); type: in vivo; conditions: application rate 500 g/ha, after 6 days
Protocol: Myzus persicae—Spray Test
Solvent: 78 parts by weight of acetone • • 1.5 parts by weight of dimethylformamide
as §1, §2
Discs of Chinese cabbage leaves (Brassica pekinensis) infested by all stages of the green peach aphid (Myzus persicae) are sprayed with an active ingredient formulation of the desired concentration.
After 6 days, the efficacy in % is determined 100% means that all the aphids have been killed; 0% means that none of the aphids have been killed.

[8] = [a] acidic range, pH 2.7, formic acid (or trifluoroacetic acid)/acetonitrile
[9] = [b] neutral range, pH 7.8, ammonium hydrogencarbonate/acetonitrile
[10] = pH 2.7, running text, [a] acidic range, pH 2.7, read-out: log P[a]
[11] = pH 2.7, table column, [a] acidic range, pH 2.7, formic acid (or trifluoroacetic acid)/acetonitrile, read-out: LogP[a]

| SMILES | efficacy (spider mites killed) [1] | nematicidal efficacy (formation of galls) [2] | LogP[a] [3, 8] | efficacy (no fertile eggs laid) [4] | LogP[b] [3, 9] | also measured |
| --- | --- | --- | --- | --- | --- | --- |
| O=c1cnn(-c2cc([S+]([O-])CC(F)(F)F)c(Cl)cc2Cl)c(=O)n1CC(F)(F)F (racemic) [compound 11] | 100% | 90% | 3.21 | 100% |  |  |
| Cc1cc(F)c(-n2ncc(=O)n(CC3CC3)c2=O)cc1[S+]([O-])CC(F)(F)F (racemic) [compound 27] | 100% | 100% | 2.72 |  | 2.65 | efficacy (beetle larvae killed) [5]: 100% |
| Cc1cc(F)c(-n2ccc(=O)n(CC(F)F)c2=O)cc1SCC(F)(F)F [compound 82] |  | 100% | 2.99 |  | 3.06 | efficacy (spider mites killed) [6]: 100% |
| Cc1cc(F)c(-n2ncc(=O)n(CC(C)C)c2=O)cc1[S+]([O-])CC(F)(F)F (racemic) [compound 22] | 100% | 90% | 2.92 | 100% | 2.9 |  |
| Cc1cc(F)c(-n2ncc(=O)n(C)c2=O)cc1SCC(F)(F)F [Ex. No. 3, 2-{2-Fluoro-4-methyl-5-[(2,2,2-trifluoroethyl)sulphanyl]phenyl}-4-methyl-1,2,4-triazine-3,5(2H,4H)-dione] |  |  |  | 100% |  | pest or weed control at 500 g/ha [1]: 100%; pest or weed control at 20 ppm [2]: 90%; chromatographic logP [3, 10]: 2.94; chromatographic logP [3, 11]: 2.94 |
| Cc1cc(F)c(-n2ncc(=O)n(CC(F)(F)F)c2=O)cc1[S+]([O-])CC(F)(F)F (racemic) [compound 9] | 100% | 100% | 2.65 | 100% |  |  |
| Cc1cc(F)c(-n2ncc(=O)n(Cc3cccnc3)c2=O)cc1[S+]([O-])CC(F)(F)F (racemic) [compound 49] |  |  | 1.47 |  | 2.00 | efficacy (aphids killed) [7]: 90% |
| COCn1c(=O)ccn(-c2cc(SCC(F)(F)F)c(C)cc2F)c1=O [compound 80] |  | 100% | 2.62 |  | 2.66 | efficacy (spider mites killed) [6]: 100% |
| Cc1cc(F)c(-n2ncc(=O)n(CC#N)c2=O)cc1[S+]([O-])CC(F)(F)F (racemic) [compound 44] |  |  | 2.02 |  | 1.96 | efficacy (aphids killed) [7]: 90%; efficacy (spider mites killed) [6]: 95% |
| Cn1c(=O)cnn(-c2ccc(Cl)c(SCC(F)(F)F)c2)c1=O [compound 32] | 100% |  | 2.18 |  | 2.16 | efficacy (aphids killed) [7]: 90% |
| Cc1cc(F)c(-n2ncc(=O)n(CC(C)C)c2=O)cc1SCC(F)(F)F [compound 20] | 100% | 90% | 4.03 | 100% | 4 |  |
| Cc1cc(F)c(-n2ccc(=O)n(C)c2=O)cc1[S+]([O-])CC(F)(F)F (centres unmarked) [Ex. No. 54, 1-{2-Fluoro-4-methyl-5-[(2,2,2-trifluoroethyl)sulphinyl]phenyl}-3-methylpyrimidine-2,4(1H,3H)-dione] |  |  |  | 100% |  | pest or weed control at 500 g/ha [1]: 100%; pest or weed control at 20 ppm [2]: 100%; chromatographic logP [3, 10]: 1.66; chromatographic logP [3, 11]: 1.61; chromatographic logP ([3]; pH 7.8, running text, [b] neutral range, pH 7.8, read-out: log P[b]): 1.61; chromatographic logP ([3]; pH 7.8, table column, [b] neutral range, pH 7.8, ammonium hydrogencarbonate/acetonitrile, read-out: LogP[b]): 1.66 |
| Cc1cc(F)c(-n2ncc(=O)n(Cc3ccccc3)c2=O)cc1[S+]([O-])CC(F)(F)F (racemic) [compound 45] |  |  | 3.00 |  | 2.9 | efficacy (spider mites killed) [6]: 90% |
| Cc1cc(F)c(-n2ncc(=O)n(Cc3ccc[n+]([O-])c3)c2=O)cc1[S+]([O-])CC(F)(F)F (racemic) [compound 48] |  |  | 1.51 |  | 1.45 | efficacy (aphids killed) [7]: 90% |
| CCn1c(=O)cnn(-c2cc([S+]([O-])CC(F)(F)F)c(C)cc2F)c1=O (racemic) [compound 21] | 100% | 100% | 2.24 | 100% | 2.22 |  |
| CCn1c(=O)cnn(-c2cc(SCC(F)(F)F)c(C)cc2F)c1=O [compound 19] | 100% | 90% | 3.31 | 100% | 3.27 |  |
| Cc1cc(C)c([S+]([O-])CC(F)(F)F)cc1-n1ncc(=O)n(CC(F)(F)F)c1=O (single isomer, unassigned) [compound 47] |  |  | 2.72 |  | 2.66 | efficacy (spider mites killed) [6]: 100% |
| Cc1cc(F)c(-n2ncc(=O)n(Cc3cccnc3)c2=O)cc1SCC(F)(F)F [compound 43] | 90% |  | 2.36 |  | 2.87 | efficacy (aphids killed) [7]: 90% |
| Cc1cc(C)c([S+]([O-])CC(F)(F)F)cc1-n1ncc(=O)n(CC(F)(F)F)c1=O (racemic) [compound 6] | 90% |  | 2.73 | 100% |  |  |
| Cc1cc(C)c([S+]([O-])CC(F)(F)F)cc1-n1ncc(=O)n(C)c1=O (racemic) [compound 4] | 100% |  | 2.01 | 100% |  |  |
